# Activity calls are given as the source filed them. The calls are words filed in the database; no cut-off is given here.
# Experiments:
# [1] = Cytotoxicity against human HuH7 cells after 96 hrs by CCK-8 assay; assay type: functional, cell-based; conditions: Huh-7, 96 h
# Aurora kinase B [2] = target: T1, Aurora kinase B (Homo sapiens, UniProt Q96GD4); assay: Inhibition of AURKB in human HeLa cells assessed as reduction in Aurora B expression at 5 to 20 uM after 48 hrs by Western blotting analysis; assay type: cell-based
# T1 sequence (Q96GD4 whole entry): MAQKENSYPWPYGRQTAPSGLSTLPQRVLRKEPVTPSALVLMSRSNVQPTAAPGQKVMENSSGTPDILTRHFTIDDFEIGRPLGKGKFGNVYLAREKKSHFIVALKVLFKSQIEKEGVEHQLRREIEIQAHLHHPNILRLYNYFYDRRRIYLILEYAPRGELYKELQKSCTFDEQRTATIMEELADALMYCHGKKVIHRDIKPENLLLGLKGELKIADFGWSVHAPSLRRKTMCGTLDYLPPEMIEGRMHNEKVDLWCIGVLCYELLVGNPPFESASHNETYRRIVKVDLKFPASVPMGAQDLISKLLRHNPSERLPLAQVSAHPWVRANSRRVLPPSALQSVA
# [3] = Cytotoxicity against human FOCUS cells after 96 hrs by CCK-8 assay; assay type: functional, cell-based
# Aurora kinase C = Aurora kinase C (Homo sapiens, UniProt Q9UQB9); assay: Inhibition of recombinant AURKC (unknown origin) after 60 mins by z'-lyte kinase assay
# Chain of Aurora kinase C (Q9UQB9 whole entry): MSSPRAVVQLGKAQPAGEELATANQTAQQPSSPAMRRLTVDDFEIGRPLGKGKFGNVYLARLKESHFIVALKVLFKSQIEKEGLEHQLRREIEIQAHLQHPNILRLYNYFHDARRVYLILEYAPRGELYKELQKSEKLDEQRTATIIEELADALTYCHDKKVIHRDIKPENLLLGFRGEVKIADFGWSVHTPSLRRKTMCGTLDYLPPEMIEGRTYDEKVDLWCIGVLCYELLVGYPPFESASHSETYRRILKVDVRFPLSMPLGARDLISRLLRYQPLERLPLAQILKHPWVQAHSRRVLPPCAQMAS
# Aurora kinase A [4] = target: T2, Aurora kinase A (Homo sapiens, UniProt O14965); assay: Inhibition of recombinant AURKA (unknown origin) after 60 mins by z'-lyte kinase assay
# T2 sequence (O14965 whole entry): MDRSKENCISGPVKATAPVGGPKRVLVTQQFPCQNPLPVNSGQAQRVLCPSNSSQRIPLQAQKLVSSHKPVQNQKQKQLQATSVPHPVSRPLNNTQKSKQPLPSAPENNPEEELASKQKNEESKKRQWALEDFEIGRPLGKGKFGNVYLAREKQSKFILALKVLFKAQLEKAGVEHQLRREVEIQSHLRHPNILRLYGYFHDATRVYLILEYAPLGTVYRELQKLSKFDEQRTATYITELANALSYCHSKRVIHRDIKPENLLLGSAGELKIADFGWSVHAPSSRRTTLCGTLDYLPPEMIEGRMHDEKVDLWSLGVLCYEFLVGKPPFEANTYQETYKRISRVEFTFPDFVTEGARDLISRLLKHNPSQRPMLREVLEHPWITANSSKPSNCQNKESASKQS
# Aurora kinase A [5] = target: T2, Aurora kinase A; assay: Binding affinity to AURKA (unknown origin)
# [6] = target: Serine/threonine-protein kinase Nek1 (Homo sapiens, UniProt Q96PY6); assay: Inhibition of recombinant NEK1 (unknown origin) after 60 mins by z'-lyte kinase assay
# HeLa = assay: Cytotoxicity against human HeLa cells after 96 hrs by CCK-8 assay; assay type: functional, cell-based
# [7] = Cytotoxicity against human PANC1 cells after 96 hrs by CCK-8 assay; assay type: functional, cell-based; conditions: PANC-1, 96 h
# SW-620 [8] = assay: Cytotoxicity against human SW620 cells after 96 hrs by CCK-8 assay; assay type: functional, cell-based; conditions: SW-620, 96 h
# SW480 = assay: Cytotoxicity against human SW480 cells after 96 hrs by CCK-8 assay; assay type: functional, cell-based; conditions: SW480, 96 h
# Aurora kinase B [9] = target: T1, Aurora kinase B; assay: Inhibition of AURKB in human HepG2 cells assessed as reduction in histone H3 phosphorylation at 20 uM after 48 hrs by Western blotting analysis; assay type: cell-based
# Aurora kinase B [10] = target: T1, Aurora kinase B; assay: Binding affinity to AURKB (unknown origin)
# [11] = target: RAC-alpha serine/threonine-protein kinase (Homo sapiens, UniProt P31749); assay: Inhibition of recombinant AKT1 (unknown origin) after 60 mins by z'-lyte kinase assay
# Chain of RAC-alpha serine/threonine-protein kinase (P31749 whole entry): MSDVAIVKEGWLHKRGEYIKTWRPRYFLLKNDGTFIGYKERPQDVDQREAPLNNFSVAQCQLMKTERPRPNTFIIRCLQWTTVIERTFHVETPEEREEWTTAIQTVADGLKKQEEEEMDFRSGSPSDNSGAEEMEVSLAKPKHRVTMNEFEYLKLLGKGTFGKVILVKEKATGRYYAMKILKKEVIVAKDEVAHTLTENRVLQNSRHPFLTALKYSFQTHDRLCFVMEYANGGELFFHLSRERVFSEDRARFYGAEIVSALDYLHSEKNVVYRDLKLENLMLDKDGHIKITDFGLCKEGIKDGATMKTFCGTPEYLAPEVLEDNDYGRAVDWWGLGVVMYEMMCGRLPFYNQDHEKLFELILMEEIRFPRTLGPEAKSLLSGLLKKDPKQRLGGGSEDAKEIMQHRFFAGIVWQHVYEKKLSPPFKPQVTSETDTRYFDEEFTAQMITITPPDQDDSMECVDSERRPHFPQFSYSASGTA
# [12] = Antitumor activity against human QGY7401 cells xenografted in nude mouse assessed as reduction in body weight at 20 mg/kg, ip qd administered for 14 days measured on day 18 (reference value: 24.13 +/- 2.18 g); assay type: functional; conditions: route intraperitoneal
# Homo sapiens [13] = assay: Inhibition of histone H3 phosphorylation in human QGY7401 cells xenografted in ip dosed nude mouse administered qd for 14 days by Hematoxylin and eosin staining-based microscopic analysis; assay type: functional, organism-based
# [14] = target: Vascular endothelial growth factor receptor 2 (Homo sapiens, UniProt P35968); assay: Inhibition of recombinant KDR (unknown origin) after 60 mins by z'-lyte kinase assay
# Chain of Vascular endothelial growth factor receptor 2 (P35968 whole entry): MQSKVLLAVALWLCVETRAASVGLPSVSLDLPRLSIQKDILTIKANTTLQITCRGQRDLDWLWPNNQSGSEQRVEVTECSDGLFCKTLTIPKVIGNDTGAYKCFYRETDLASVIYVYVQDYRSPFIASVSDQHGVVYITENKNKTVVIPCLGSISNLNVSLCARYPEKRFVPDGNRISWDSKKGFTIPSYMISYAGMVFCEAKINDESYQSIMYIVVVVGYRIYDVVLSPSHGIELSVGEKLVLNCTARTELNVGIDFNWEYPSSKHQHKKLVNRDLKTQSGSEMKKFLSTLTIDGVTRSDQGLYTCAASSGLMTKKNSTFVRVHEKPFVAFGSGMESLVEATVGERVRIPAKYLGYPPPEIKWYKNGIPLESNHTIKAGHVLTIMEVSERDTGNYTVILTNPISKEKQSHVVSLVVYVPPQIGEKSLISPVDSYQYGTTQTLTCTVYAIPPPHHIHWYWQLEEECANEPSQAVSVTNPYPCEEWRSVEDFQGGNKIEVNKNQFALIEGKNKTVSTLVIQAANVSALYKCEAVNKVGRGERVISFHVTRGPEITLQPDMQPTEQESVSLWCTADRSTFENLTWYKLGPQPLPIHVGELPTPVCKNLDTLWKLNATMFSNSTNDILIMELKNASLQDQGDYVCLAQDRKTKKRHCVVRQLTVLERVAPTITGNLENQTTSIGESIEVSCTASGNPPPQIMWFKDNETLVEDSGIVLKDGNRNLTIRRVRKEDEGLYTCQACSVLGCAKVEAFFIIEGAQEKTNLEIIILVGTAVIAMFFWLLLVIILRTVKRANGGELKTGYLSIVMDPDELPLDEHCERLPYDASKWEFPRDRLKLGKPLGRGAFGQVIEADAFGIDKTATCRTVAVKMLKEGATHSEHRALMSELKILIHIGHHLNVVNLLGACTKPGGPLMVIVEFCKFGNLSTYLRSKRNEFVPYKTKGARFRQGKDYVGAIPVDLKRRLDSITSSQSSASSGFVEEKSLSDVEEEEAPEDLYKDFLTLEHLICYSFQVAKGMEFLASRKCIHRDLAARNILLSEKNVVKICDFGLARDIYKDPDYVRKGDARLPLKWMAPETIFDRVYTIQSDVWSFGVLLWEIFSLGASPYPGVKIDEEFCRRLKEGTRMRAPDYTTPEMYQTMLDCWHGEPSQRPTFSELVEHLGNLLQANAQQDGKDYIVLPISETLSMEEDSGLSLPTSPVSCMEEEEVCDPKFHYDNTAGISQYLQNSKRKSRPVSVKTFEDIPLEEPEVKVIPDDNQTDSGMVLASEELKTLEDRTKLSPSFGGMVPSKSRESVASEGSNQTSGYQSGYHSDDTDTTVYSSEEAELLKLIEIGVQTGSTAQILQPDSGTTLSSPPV
# HepG2 [15] = assay: Inhibition of colony formation in human HepG2 cells after 96 hrs by crystal violet staining-based assay; assay type: functional, cell-based
# Homo sapiens [16] = assay: Inhibition of histone H3 phosphorylation in human QGY7401 cells xenografted in nude mouse at 10 to 20 mg/kg, ip qd administered for 14 days by hematoxylin and eosin staining-based microscopic analysis; assay type: functional, organism-based
# Aurora kinase B [17] = target: T1, Aurora kinase B; assay: Inhibition of AURKB in human HepG cells assessed as reduction in histone H3 phosphorylation at 5 to 20 uM after 48 hrs by […] analysis; assay type: cell-based
# [18] = target: Platelet-derived growth factor receptor alpha (Homo sapiens, UniProt P16234); assay: Inhibition of recombinant PDGFR alpha (unknown origin) after 60 mins by z'-lyte kinase assay
# Chain of Platelet-derived growth factor receptor alpha (P16234 whole entry): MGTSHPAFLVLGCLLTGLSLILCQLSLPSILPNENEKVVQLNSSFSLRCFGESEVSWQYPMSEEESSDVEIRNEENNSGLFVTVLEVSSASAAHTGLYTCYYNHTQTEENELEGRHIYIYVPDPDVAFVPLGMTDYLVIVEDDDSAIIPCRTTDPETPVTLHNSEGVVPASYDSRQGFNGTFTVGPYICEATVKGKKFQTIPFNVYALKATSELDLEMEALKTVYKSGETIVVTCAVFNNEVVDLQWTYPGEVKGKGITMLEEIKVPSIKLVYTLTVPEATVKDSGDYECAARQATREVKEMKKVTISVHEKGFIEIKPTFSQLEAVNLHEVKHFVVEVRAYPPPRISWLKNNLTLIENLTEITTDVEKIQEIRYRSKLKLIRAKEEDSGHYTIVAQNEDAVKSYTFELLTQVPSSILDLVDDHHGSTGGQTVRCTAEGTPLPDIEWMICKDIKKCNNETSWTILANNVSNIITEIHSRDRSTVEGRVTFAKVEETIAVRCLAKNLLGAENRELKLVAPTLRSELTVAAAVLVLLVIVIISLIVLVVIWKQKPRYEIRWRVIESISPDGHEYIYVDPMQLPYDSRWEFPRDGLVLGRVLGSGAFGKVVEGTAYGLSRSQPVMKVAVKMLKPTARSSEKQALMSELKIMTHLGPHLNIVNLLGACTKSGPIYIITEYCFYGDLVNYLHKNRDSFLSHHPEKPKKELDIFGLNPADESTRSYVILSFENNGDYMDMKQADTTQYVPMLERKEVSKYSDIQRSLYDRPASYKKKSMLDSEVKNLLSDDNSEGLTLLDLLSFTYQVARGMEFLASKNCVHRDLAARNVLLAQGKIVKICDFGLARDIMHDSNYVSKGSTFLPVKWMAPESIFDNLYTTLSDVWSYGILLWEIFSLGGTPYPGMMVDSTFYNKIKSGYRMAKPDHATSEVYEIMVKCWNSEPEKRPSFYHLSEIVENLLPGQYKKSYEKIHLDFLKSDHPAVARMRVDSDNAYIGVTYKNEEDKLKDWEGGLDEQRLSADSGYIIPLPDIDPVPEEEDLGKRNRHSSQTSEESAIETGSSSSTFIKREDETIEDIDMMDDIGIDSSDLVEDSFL
# [19] = Cytotoxicity against human HCT116 cells after 96 hrs by CCK-8 assay; assay type: functional, cell-based; conditions: HCT-116, 96 h
# [20] = Cytotoxicity against human Hep3B cells after 96 hrs by CCK-8 assay; assay type: functional, cell-based, Hep 3B2
# SW-620 [21] = assay: Growth inhibition of human SW620 cells at 5 to 20 uM after 96 hrs by CCK-8 assay; assay type: functional, cell-based
# HepG2 [22] = assay: Cell cycle arrest in human HepG2 cells assessed as reduction in G1 phase at 20 uM after 48 hrs by flow cytometry relative to control; assay type: functional, cell-based
# [23] = Cytotoxicity against human SPC-A1 cells after 96 hrs by CCK-8 assay; assay type: functional, cell-based; conditions: SPCA1, 96 h
# Aurora kinase B [24] = target: T1, Aurora kinase B; assay: Inhibition of AURKB in human SW620 cells assessed as reduction in Aurora B expression expression at 5 to 20 uM after 48 hrs by Western blotting analysis; assay type: cell-based; conditions: SW-620
# Aurora kinase B [25] = target: T1, Aurora kinase B; assay: Inhibition of AURKB in human HeLa cells assessed as reduction in histone H3 expression at 5 to 20 uM after 48 hrs by Western blotting analysis; assay type: cell-based
# Mus musculus [26] = assay: Acute toxicity in mouse up to 1000 mg/kg, ip qd administered for 2 weeks; assay type: organism-based; parameters: dose 1000 mg/kg, route intraperitoneal; conditions: in vivo, 336 h
# [27] = Cytotoxicity against human PC3 cells after 96 hrs by CCK-8 assay; assay type: functional, cell-based; conditions: PC-3, 96 h
# [28] = target: Glycogen synthase kinase-3 beta (Homo sapiens, UniProt P49841); assay: Inhibition of recombinant GSK-3 beta (unknown origin) after 60 mins by z'-lyte kinase assay
# Chain of Glycogen synthase kinase-3 beta (P49841 whole entry, canonical isoform): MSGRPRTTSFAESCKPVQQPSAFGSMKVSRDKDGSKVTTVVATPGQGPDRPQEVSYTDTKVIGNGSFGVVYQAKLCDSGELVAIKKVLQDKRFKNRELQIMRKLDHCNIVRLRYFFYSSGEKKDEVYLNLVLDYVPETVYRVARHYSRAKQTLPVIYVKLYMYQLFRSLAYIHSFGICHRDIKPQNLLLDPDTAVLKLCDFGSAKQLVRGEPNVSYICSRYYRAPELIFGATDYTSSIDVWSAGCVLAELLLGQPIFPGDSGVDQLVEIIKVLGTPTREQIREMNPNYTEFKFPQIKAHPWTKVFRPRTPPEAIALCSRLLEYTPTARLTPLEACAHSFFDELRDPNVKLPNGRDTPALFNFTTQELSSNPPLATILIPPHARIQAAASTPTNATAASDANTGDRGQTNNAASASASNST
# [29] = target: Casein kinase I isoform alpha (Homo sapiens, UniProt P48729); assay: Inhibition of recombinant CK1 alpha1 (unknown origin) after 60 mins by z'-lyte kinase assay
# Chain of Casein kinase I isoform alpha (P48729 whole entry, canonical isoform): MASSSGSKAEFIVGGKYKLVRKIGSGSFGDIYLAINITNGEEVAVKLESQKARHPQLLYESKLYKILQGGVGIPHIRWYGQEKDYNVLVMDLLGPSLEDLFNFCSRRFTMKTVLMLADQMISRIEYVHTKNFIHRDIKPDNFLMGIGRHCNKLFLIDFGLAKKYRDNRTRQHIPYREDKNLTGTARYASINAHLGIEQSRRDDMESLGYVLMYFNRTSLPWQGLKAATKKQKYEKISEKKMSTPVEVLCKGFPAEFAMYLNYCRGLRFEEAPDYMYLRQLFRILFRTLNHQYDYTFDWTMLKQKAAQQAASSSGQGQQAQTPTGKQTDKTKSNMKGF
# Aurora kinase B [30] = target: T1, Aurora kinase B; assay: Inhibition of AURKB in human SW620 cells assessed as reduction in histone H3 phosphorylation at 5 to 20 uM after 48 hrs by Western blotting analysis; assay type: cell-based; conditions: SW-620
# Mus musculus [31] = assay: Toxicity in nude mouse xenografted with human QGY7401 cells at 10 to 20 mg/kg, ip qd administered for 14 days measured on day 18; assay type: organism-based; parameters: dose 10-20 mg/kg, route intraperitoneal; conditions: in vivo, 336 h
structure (smiles),measurement,setting,value
O=C1/C(=C\c2ccc(O)c(O)c2)Oc2ccccc21,IC50,[1],21.1 µM
same,inhibition,Aurora kinase B [2],Active
same,IC50,[3],20.7 µM
same,IC50,Aurora kinase C,4.75 µM
same,IC50,Aurora kinase A [4],1.34 µM
same,Kd,Aurora kinase A [5],12.9 µM
same,IC50,[6],11.5 µM
same,IC50,HeLa,13.4 µM
same,IC50,[7],36.5 µM
same,IC50,SW-620 [8],3.9 µM
same,IC50,SW480,50 µM
same,inhibition,Aurora kinase B [9],Active
same,Kd,Aurora kinase B [10],3.06 µM
same,IC50,[11],38.6 µM
same,Activity,[12],22.14 g
same,inhibition,Homo sapiens [13],Dose-dependent effect
same,IC50,[14],5.96 µM
same,inhibition,HepG2 [15],Dose-dependent effect
same,inhibition,Homo sapiens [16],Active
same,inhibition,Aurora kinase B [17],Active
same,IC50,[18],4.04 µM
same,IC50,[19],13.4 µM
same,IC50,[20],28.7 µM
same,growth inhibition (GI),SW-620 [21],Active
same,Activity,HepG2 [22],Active
same,IC50,[23],20.4 µM
same,inhibition,Aurora kinase B [24],Active
same,inhibition,Aurora kinase B [25],Active
same,Activity,Mus musculus [26],Non-toxic
same,IC50,[27],> 50 µM
same,IC50,[28],2.63 µM
same,IC50,[29],78.8 µM
same,inhibition,Aurora kinase B [30],Active
same,Activity,Mus musculus [31],Non-toxic
